Where two headings read alike, the source gives them in different places.
Experiments:
Assay in all cases: TGFα-shedding assay-based GPCR screening with chimeric Gα subunit proteins
Type in all cases: cell-based
348 GPCRs [1] = molecular target: T1, 348 GPCRs (Homo sapiens, UniProt O15552); details: 10µM, Favipiravir 100μM
T1 construct: expressed in transfected cells; host or cells: HEK293A
T1 sequence (O15552 1-330): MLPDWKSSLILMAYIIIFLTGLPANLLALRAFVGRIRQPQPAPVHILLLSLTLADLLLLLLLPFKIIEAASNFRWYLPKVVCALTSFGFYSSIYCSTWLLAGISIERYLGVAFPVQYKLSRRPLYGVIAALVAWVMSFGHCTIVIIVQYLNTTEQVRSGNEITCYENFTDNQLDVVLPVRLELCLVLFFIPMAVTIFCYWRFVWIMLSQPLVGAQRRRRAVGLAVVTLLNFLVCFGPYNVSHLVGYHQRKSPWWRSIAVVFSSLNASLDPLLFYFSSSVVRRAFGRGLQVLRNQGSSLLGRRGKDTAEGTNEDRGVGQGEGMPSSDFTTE

348 GPCRs [2] = molecular target: T2, 348 GPCRs (Homo sapiens, UniProt P08912)
T2 construct: expressed in transfected cells; host or cells: HEK293A
T2 sequence (P08912 1-532): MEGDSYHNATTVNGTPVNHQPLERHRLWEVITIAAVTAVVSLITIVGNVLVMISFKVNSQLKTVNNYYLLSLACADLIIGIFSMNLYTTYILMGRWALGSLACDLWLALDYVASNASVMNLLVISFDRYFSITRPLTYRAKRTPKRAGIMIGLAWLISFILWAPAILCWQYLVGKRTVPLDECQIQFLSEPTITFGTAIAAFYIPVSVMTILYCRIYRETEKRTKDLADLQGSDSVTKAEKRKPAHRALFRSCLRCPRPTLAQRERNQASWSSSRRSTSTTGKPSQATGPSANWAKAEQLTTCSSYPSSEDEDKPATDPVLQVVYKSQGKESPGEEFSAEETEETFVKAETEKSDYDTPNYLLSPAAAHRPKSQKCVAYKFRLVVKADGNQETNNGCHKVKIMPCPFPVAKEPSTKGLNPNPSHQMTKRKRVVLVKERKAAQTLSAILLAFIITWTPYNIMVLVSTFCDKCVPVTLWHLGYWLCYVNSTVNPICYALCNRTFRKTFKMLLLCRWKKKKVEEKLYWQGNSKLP

348 GPCRs [3] = molecular target: T3, 348 GPCRs (Homo sapiens, UniProt P30411); details: 10µM, Favipiravir 100μM
T3 sequence (P30411 1-391): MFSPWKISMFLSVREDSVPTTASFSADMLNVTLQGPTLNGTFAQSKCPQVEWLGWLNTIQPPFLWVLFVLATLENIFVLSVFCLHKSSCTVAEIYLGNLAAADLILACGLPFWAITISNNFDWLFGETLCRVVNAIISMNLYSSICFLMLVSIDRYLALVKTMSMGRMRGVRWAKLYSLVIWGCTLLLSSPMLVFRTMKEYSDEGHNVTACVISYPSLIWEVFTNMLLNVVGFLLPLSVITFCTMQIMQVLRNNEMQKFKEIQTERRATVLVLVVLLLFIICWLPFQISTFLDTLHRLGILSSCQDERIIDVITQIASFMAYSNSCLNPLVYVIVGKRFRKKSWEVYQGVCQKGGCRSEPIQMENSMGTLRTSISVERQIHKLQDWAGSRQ

348 GPCRs [4] = molecular target: T4, 348 GPCRs (Homo sapiens, UniProt Q14831); details: 10µM, Favipiravir 100μM
T4 construct: expressed in transfected cells; host or cells: HEK293A
T4 sequence (Q14831 35-915): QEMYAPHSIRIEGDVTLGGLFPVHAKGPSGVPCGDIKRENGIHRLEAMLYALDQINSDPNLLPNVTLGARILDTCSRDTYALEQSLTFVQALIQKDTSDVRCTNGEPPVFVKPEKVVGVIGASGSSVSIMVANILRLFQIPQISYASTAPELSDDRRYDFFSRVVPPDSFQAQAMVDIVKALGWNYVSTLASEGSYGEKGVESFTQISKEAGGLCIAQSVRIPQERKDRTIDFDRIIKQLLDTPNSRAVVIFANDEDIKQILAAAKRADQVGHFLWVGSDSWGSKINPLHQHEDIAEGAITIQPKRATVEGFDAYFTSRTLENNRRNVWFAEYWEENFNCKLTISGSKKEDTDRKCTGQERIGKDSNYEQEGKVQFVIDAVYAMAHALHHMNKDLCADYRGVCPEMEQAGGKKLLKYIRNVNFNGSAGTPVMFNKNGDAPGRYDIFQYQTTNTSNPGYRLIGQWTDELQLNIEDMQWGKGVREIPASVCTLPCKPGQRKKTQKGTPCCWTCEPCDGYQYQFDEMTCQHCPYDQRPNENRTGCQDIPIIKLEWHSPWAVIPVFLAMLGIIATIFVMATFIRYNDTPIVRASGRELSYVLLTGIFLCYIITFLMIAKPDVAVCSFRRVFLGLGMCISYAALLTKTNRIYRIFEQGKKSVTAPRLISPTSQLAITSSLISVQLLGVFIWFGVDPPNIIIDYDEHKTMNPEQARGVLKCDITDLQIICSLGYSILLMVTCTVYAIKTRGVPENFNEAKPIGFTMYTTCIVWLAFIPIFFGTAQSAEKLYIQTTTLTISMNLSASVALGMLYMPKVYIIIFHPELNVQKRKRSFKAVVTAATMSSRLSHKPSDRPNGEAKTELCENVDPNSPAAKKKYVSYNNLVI

348 GPCRs [5] = molecular target: T5, 348 GPCRs (Homo sapiens, UniProt Q8IZF4)
T5 construct: expressed in transfected cells; host or cells: HEK293A
T5 sequence (Q8IZF4 22-528): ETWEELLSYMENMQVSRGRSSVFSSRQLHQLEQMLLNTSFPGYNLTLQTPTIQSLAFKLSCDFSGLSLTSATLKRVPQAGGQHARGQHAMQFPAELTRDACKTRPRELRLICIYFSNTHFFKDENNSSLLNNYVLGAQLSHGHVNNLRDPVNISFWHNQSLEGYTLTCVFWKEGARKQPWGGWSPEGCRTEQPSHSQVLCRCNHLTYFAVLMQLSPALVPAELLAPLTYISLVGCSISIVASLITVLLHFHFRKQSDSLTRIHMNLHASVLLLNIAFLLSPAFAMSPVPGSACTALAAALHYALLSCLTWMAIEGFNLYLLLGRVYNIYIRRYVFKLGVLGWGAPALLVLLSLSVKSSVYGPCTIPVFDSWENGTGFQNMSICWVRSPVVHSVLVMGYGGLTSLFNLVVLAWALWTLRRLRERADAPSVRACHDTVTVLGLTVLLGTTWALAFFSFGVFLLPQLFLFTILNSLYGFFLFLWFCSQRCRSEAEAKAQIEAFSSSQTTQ

348 GPCRs [6] = molecular target: T6, 348 GPCRs (Homo sapiens, UniProt Q99705)
T6 construct: expressed in transfected cells; host or cells: HEK293A
T6 sequence (Q99705 whole entry): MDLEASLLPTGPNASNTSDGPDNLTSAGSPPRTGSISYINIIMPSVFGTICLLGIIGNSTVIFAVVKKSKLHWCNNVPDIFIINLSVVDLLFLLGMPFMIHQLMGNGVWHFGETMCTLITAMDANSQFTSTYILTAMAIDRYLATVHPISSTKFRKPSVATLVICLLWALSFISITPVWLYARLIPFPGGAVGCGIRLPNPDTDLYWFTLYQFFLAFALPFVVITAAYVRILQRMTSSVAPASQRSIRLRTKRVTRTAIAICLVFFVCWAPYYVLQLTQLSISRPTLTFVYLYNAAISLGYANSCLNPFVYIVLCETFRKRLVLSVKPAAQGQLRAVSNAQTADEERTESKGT

348 GPCRs [7] = molecular target: T7, 348 GPCRs (Homo sapiens, UniProt Q9NS66); details: 10µM, Favipiravir 100μM
T7 construct: expressed in transfected cells; host or cells: HEK293A
T7 sequence (Q9NS66 whole entry): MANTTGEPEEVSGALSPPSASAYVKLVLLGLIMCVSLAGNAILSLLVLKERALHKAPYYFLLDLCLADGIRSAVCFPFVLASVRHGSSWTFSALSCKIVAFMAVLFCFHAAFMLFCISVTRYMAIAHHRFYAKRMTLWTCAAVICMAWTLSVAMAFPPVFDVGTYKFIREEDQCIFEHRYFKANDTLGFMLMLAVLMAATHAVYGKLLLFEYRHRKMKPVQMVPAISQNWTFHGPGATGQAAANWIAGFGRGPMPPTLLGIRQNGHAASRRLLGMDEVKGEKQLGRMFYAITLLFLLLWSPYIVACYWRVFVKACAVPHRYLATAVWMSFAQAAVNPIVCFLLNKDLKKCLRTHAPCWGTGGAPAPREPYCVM

348 GPCRs [8] = molecular target: T8, 348 GPCRs (Homo sapiens, UniProt Q9NYV9); details: 10µM, Favipiravir 100μM
T8 construct: expressed in transfected cells; host or cells: HEK293A
T8 sequence (Q9NYV9 1-303): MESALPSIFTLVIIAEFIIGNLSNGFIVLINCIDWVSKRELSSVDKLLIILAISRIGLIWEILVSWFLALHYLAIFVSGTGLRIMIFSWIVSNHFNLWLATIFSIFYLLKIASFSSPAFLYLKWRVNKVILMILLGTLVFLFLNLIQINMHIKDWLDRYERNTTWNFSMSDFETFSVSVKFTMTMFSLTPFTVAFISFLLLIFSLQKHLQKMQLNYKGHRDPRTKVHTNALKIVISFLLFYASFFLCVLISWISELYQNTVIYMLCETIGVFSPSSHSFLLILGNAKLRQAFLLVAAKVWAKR

348 GPCRs [9] = molecular target: T9, 348 GPCRs (Homo sapiens, UniProt Q9Y5X5); details: 10µM, Favipiravir 100μM
T9 construct: expressed in transfected cells; host or cells: HEK293A
T9 sequence (Q9Y5X5 whole entry): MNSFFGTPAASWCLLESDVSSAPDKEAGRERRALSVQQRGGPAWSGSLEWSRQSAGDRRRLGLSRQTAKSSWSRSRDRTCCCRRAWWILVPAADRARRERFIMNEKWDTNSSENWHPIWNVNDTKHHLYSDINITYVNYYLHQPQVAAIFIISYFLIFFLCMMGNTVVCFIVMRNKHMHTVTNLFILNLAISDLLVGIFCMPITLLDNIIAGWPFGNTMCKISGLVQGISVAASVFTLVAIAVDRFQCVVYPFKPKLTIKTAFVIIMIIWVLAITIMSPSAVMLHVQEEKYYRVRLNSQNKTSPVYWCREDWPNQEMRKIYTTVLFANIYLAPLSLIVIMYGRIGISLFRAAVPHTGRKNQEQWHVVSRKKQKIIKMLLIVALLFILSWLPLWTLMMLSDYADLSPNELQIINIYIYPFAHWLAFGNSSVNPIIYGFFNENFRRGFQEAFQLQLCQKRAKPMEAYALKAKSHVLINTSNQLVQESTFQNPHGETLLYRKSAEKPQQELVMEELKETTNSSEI

[10] = FFA2 (free fatty acid receptor 2), read-out: % GPCR activation compared to TPA
[11] = GPCR M5 (Muscarinic acetylcholine receptor M5), read-out: % GPCR activation compared to TPA
[12] = B2 (bradykinin receptor B2), read-out: % GPCR activation compared to TPA
[13] = GRM7 (glutamate receptor, metabotropic 7), read-out: % GPCR activation compared to TPA
[14] = GPCR GPR114 (G-protein-coupled receptor 114 (ADGRG5)), read-out: % GPCR activation compared to TPA
[15] = GPCR MCHR1 (melanin concentrating hormone receptor 1), read-out: % GPCR activation compared to TPA
[16] = GPR173 (G protein-coupled receptor 173), read-out: % GPCR activation compared to TPA
[17] = TAS2R13 (taste receptor, type 2, member 13), read-out: % GPCR activation compared to TPA
[18] = NPFF2 (neuropeptide FF receptor 2), read-out: % GPCR activation compared to TPA
[19] = read-out: % GPCR activation compared to TPA, FFA2 (free fatty acid receptor 2)
[20] = read-out: % GPCR activation compared to TPA, GPCR M5 (Muscarinic acetylcholine receptor M5)
[21] = read-out: % GPCR activation compared to TPA, B2 (bradykinin receptor B2)
[22] = read-out: % GPCR activation compared to TPA, GRM7 (glutamate receptor, metabotropic 7)
[23] = read-out: % GPCR activation compared to TPA, GPCR GPR114 (G-protein-coupled receptor 114 (ADGRG5))
[24] = read-out: % GPCR activation compared to TPA, GPCR MCHR1 (melanin concentrating hormone receptor 1)
[25] = read-out: % GPCR activation compared to TPA, GPR173 (G protein-coupled receptor 173)
[26] = read-out: % GPCR activation compared to TPA, TAS2R13 (taste receptor, type 2, member 13)
[27] = read-out: % GPCR activation compared to TPA, NPFF2 (neuropeptide FF receptor 2)

Row | SMILES | activation at 10 µM (348 GPCRs [1]; [10]) [%] | activation at 10 µM (348 GPCRs [2]; [11]) [%] | activation at 10 µM (348 GPCRs [3]; [12]) [%] | activation at 10 µM (348 GPCRs [4]; [13]) [%] | activation at 10 µM (348 GPCRs [5]; [14]) [%] | activation at 10 µM (348 GPCRs [6]; [15]) [%] | activation at 10 µM (348 GPCRs [7]; [16]) [%] | activation at 100 µM (348 GPCRs [8]; [17]) [%] | activation at 10 µM (348 GPCRs [9]; [18]) [%] | activation at 10 µM (348 GPCRs [1]; [19]) [%] | activation at 10 µM (348 GPCRs [2]; [20]) [%] | activation at 10 µM (348 GPCRs [3]; [21]) [%] | activation at 10 µM (348 GPCRs [4]; [22]) [%] | activation at 10 µM (348 GPCRs [5]; [23]) [%] | activation at 10 µM (348 GPCRs [6]; [24]) [%] | activation at 10 µM (348 GPCRs [7]; [25]) [%] | activation at 100 µM (348 GPCRs [8]; [26]) [%] | activation at 10 µM (348 GPCRs [9]; [27]) [%] | also measured
1 | CCC(CC)COC(=O)[C@H](C)N[P@](=O)(OC[C@H]1O[C@@](C#N)(c2ccc3c(N)ncnn23)[C@H](O)[C@@H]1O)Oc1ccccc1 [remdesivir] | – | – | – | – | – | – | – | – | – | -1.72 | -0.595 | 1.57 | -0.738 | -1.51 | -1.97 | 1.49 | 1.1 | -0.846 | –
2 | CC(C)OC(=O)[C@H](C)N[P@](=O)(OC[C@H]1O[C@@H](n2ccc(=O)[nH]c2=O)[C@](C)(F)[C@@H]1O)Oc1ccccc1 [sofosbuvir] | – | – | – | – | – | – | – | – | – | 0.172 | -1.43 | 0.561 | 10.4 | 0.492 | -4.22 | -0.581 | -2.09 | -0.549 | –

More lines, main results first:

Row | activation at 10 µM (348 GPCRs [1]; [10]) [%] | activation at 10 µM (348 GPCRs [2]; [11]) [%] | activation at 10 µM (348 GPCRs [3]; [12]) [%] | activation at 10 µM (348 GPCRs [4]; [13]) [%] | activation at 10 µM (348 GPCRs [5]; [14]) [%] | activation at 10 µM (348 GPCRs [6]; [15]) [%] | activation at 10 µM (348 GPCRs [7]; [16]) [%] | activation at 100 µM (348 GPCRs [8]; [17]) [%] | activation at 10 µM (348 GPCRs [9]; [18]) [%] | SMILES | activation at 10 µM (348 GPCRs [1]; [19]) [%] | activation at 10 µM (348 GPCRs [2]; [20]) [%] | activation at 10 µM (348 GPCRs [3]; [21]) [%] | activation at 10 µM (348 GPCRs [4]; [22]) [%] | activation at 10 µM (348 GPCRs [5]; [23]) [%] | activation at 10 µM (348 GPCRs [6]; [24]) [%] | activation at 10 µM (348 GPCRs [7]; [25]) [%] | activation at 100 µM (348 GPCRs [8]; [26]) [%] | activation at 10 µM (348 GPCRs [9]; [27]) [%] | also measured
3 | -2.64 | 2.9 | -3 | 1.06 | -2.76 | -1.77 | 0.119 | 0.783 | -0.904 | N#C[C@@]1(c2ccc3c(N)ncnn23)O[C@H](CO)[C@@H](O)[C@H]1O [GS441524] | – | – | – | – | – | – | – | – | – | –
4 | -0.501 | – | 1.08 | -0.143 | – | – | 0.0591 | -1.06 | -0.818 | NC(=O)c1nc(F)cnc1O [favipiravir, 6-fluoro-3-hydroxy-2-pyrazinecarboxamide] | – | – | – | – | – | – | – | – | – | activation at 100 µM (348 GPCRs [2]; GPCR M5 (Muscarinic acetylcholine receptor M5), 100μM, read-out: % GPCR activation compared to TPA): 0.695%; activation at 100 µM (348 GPCRs [5]; GPCR GPR114 (G-protein-coupled receptor 114 (ADGRG5)), 100μM, read-out: % GPCR activation compared to TPA): -2.55%; activation at 100 µM (348 GPCRs [6]; GPCR MCHR1 (melanin concentrating hormone receptor 1), 100μM, read-out: % GPCR activation compared to TPA): -2.9%
5 | -4.09 | -0.639 | 1.04 | -1.87 | -2.86 | -2.69 | -4.49 | -0.971 | -0.917 | CC(C)C(=O)OC[C@H]1O[C@@H](n2ccc(NO)nc2=O)[C@H](O)[C@@H]1O [molnupiravir] | – | – | – | – | – | – | – | – | – | –
